Test results as given in patent US4691018A, “Pyridine derivatives and their use as anti-allergic agents” (Chugai Seiyaku Kabushiki Kaisha, priority 1985, dated 1987).

Assays:
[1] = tested on: passive cutaneous anaphylaxis (PCA); experiment: Inhibitory effect on passive cutaneous anaphylaxis (PCA), oral; assay type: in vivo, rat (SD/JCL strain); details: rat
Method: Rat antiserum to egg albumin was prepared by the method of I. Mota, "Immunology" 7, 681-699 (1964), and 400 folds diluted. The diluted antiserum (0.1 ml) was injected into dorsal skin of rats (SD/JCL strain, male, 9-week-old) to subject them to passive immunization.
Forty-eight to seventy-two hours later, each rat was orally given a compound of this invention suspended in a 1% gum arabic aqueous solution. Five minutes after the administration, each rat was intravenously injected at its tail with 1 ml of a mixture containing equal volumes of a 0.5% solution of egg albumin in saline and 0.5% solution of Evans Blue in saline. Thirty minutes later, each rat was beheaded and the extravasated dye was quantitatively measured by the method of Katayama et al., "Microbiol. Immunol" 22, 89-101 (1978).
The percent inhibition was calculated by comparing the amount of Evans Blue leaking in the test groups with that in the control group in which a gum arabic aqueous solution containing no test compound was administered to the test animal.
In Table 1, inhibition efficiencies of 30 to 50%, 51-70%, 71-90% and 91% or more are represented by the ratings +, ++, +++ and ++++, respectively. The numbers given to the test compounds correspond to the Example Nos.

IgE antibody = experiment: Inhibitory effect on production of IgE antibody, oral, X-ray exposed mice immunized with DNP-KLH; assay type: in vivo, mouse (SJL/J strain); details: mouse
Method: Inhibitory effect on production of IgE antibody SJL/J strain mice (8-week-old) were exposed to X-rays of 400 R, and concurrently injected intraperitoneally a mixture of 1 μg of Keyhole Limpet Hemocyanin (KLH) with 4 mg of an aluminum hydroxide gel. One week later, the mice were intraperitoneally administered with a mixture of 1 μg of dinitrophenyl group-binding KLH (DNP-KLH) with 4 mg of an aluminum hydroxide gel. From the next day of the immunization with DNP-KLH, each of the mice was forced to be orally administered by using gastric catherter with a test compound suspended in a 1% gum arabic aqueous solution. The mice in a control group were administered with only the gum arabic solution.
The serum was sampled from each of the mice treated above, and the amount of IgE therein was measured by the "Rat 48-hour PCA test" similarly as described in Experiment 1. The amount of IgE was expressed in terms of the maximum dilution of the serum by which a cutaneous reaction appeared in an area with a diameter of 5 mm or more to be observed.
The percent inhibition was indicated as the ratio of the amount of IgE of the test group to that of the control group.
In Table 2, inhibition efficiencies of 25-50%, 50-75% and 75% or more are represented by ratings ++, +++ and ++++, respectively. The numbers given to the test compounds correspond to the Example Nos.

Row | Structure (SMILES) | Percent Inhibition (IgE antibody; dose 5 mg/kg) | Percent Inhibition ([1]; dose 10 mg/kg) | further results
1 | CCOC(=O)c1cc(C(=O)NC)nc(C(=O)NC)c1 [Compound 1, ethyl 2,6-bis(N-methylcarbamoyl)pyridine-4-carboxylate] | ++++ (75% or more) | – | Percent Inhibition ([1]; dose 5 mg/kg): ++++ (91% or more)
2 | CNC(=O)c1cc(C(=O)O)cc(C(=O)NC)n1 [Compound 2, 2,6-bis(N-methylcarbamoyl)pyridine-4-carboxylic acid] | – | – | Percent Inhibition ([1]; dose 50 mg/kg): + (30 to 50%); Percent Inhibition (IgE antibody; dose 50 mg/kg): ++++ (75% or more)
3 | CCCOC(=O)c1cc(C(=O)NC)nc(C(=O)NC)c1 [Compound 4] | – | ++ (51-70%) | –
4 | CNC(=O)c1cc(C(=O)OC(C)C)cc(C(=O)NC)n1 [Compound 5] | +++ (50-75%) | – | –
5 | CNC(=O)c1cc(C(=O)OCCOC)cc(C(=O)NC)n1 [Compound 7] | – | ++ (51-70%) | –
6 | CNC(=O)c1cc(C(=O)OCCO)cc(C(=O)NC)n1 [Compound 8, 2-hydroxyethyl 2,6-bis(N-methylcarbamoyl)pyridine-4-carboxylate] | ++ (25-50%) | ++ (51-70%) | –
7 | CCOC(=O)c1cc(C(=O)NC)nc(C(=O)NC)c1N [Compound 10, ethyl 3-amino-2,6-bis(N-methylcarbamoyl)pyridine-4-carboxylate] | – | +++ (71-90%) | Percent Inhibition (IgE antibody; dose 10 mg/kg): ++++ (75% or more)
8 | CCOC(=O)c1cc(C(=O)NC)nc(C(=O)NC)c1NC [Compound 11, ethyl 3-methylamino-2,6-bis(N-methylcarbamoyl)pyridine-4-carboxylate] | ++++ (75% or more) | ++++ (91% or more) | –
